Laboratory results taken from publication PMC11873939, “Target Identification with Live-Cell Photoaffinity Labeling and Mechanism of Action Elucidation of ARN23765, a Highly Potent CFTR Corrector” (Journal of Medicinal Chemistry, 2025).

How the values were obtained:
[1] = target: T1, F508del/R1070W-CFTR (Homo sapiens, UniProt P13569, DEL508-508/R1070W); experiment: FLIPR membrane potential assay of CFTR channel activity in transfected HEK293 cells; format: cell-based; conditions: HEK293, 24 h; ARN23765 10 nM, VX-661 3 μM
T1 construct: CFTR identification in pull-down studies and analysis of full-length CFTR in protein maturation assays; expressed in transfected cells; host or cells: HEK293 (transient)
T1 sequence (P13569 with tags, fused parts or gaps DEL508-508/R1070W): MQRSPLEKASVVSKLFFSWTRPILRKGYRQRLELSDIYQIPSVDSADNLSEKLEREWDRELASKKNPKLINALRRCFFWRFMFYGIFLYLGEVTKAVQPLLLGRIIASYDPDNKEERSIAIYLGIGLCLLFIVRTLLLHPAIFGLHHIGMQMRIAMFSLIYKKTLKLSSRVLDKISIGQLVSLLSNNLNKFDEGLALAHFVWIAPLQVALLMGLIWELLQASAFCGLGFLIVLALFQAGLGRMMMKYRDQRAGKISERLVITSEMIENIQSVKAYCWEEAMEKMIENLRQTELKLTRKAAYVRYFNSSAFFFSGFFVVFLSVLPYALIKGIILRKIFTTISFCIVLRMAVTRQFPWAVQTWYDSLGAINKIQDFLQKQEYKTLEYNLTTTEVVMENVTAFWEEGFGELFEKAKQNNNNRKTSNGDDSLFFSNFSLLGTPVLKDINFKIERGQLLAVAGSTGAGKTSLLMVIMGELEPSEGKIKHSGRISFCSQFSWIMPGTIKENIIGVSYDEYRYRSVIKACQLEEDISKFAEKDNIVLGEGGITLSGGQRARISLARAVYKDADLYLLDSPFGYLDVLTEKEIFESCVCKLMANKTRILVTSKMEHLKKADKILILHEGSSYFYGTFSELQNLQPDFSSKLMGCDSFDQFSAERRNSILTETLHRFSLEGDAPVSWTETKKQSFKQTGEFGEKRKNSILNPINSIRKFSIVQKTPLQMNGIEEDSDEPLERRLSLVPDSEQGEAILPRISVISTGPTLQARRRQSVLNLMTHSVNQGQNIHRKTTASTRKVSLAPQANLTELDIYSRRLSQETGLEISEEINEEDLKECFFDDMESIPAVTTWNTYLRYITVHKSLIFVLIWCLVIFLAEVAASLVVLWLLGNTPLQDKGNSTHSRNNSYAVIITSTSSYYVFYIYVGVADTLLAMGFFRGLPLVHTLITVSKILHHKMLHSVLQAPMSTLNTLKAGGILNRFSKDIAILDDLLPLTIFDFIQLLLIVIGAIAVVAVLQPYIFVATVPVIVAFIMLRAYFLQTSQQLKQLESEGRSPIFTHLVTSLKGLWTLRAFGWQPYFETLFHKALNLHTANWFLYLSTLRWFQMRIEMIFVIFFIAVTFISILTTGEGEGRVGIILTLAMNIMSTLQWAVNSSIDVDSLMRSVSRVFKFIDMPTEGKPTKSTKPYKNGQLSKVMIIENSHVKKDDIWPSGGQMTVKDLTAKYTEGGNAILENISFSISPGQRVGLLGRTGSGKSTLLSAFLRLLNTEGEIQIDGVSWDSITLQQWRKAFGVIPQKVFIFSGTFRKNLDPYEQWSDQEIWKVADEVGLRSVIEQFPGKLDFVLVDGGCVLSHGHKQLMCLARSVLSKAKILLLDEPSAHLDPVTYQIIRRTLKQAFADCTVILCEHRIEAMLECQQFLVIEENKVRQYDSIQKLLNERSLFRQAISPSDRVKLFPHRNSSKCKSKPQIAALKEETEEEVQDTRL
Protocol: (§1) HS-YFP-based assay for CFTR activity
(§2) Twenty-four hours after seeding on 96-well plates, CFBE41o- cells stably over-expressing F508del-CFTR and the HS-YFP were treated with test compounds at different concentrations in the 3 nM-10 µM range.1 Cells treated with vehicle alone (DMSO) and with ARN23765, respectively, served as negative and positive controls. The following day, cells were washed with PBS containing (in mM) 137 NaCl, 2.7 KCl, 8.1 Na2HPO4, 1.5 KH2PO4, 1.0 CaCl2, and 0.5 MgCl2. Cells were then incubated for 25 min with […] of PBS plus forskolin (20 µM) and VX-770 (1 µM) to maximally stimulate F508del-CFTR. Cells were then transferred to a microplate reader (FluoStar Galaxy; BMG Labtech, Offenburg, Germany) for CFTR activity determination. The plate reader was equipped with high-quality excitation (HQ500/20X: 500 ± 10 nm) and emission (HQ535/30M: 535 ± 15 nm) filters for YFP (Chroma Technology). Each assay comprised a continuous 14 s fluorescence reading, 2 s before and 12 s after injection of […] of an iodide-containing solution (PBS with Cl- replaced by I-; final I- concentration […]). Data were normalized to the initial background-subtracted fluorescence. […]
(§3) Cell lysates or eluates from pull-down experiments were resolved by SDS-PAGE on 4-8 % tris-acetate gels (EA0378BOX, Life technologies) and were transferred into PVDF membranes (Immobilion-E IEVH00005, Millipore). […] Images were acquired with Chemidoc MP (BIO-RAD laboratories) and quantified with Image J software.
(§4) CFTR Channel function analysis by fluorometric imaging plate reader functional (FLIPR) assay FLIPR assay was performed as previously described.3 Briefly, HEK293 cells were seeded in 96-well plates (black, flat bottom, Corning) and transfected with mutated CFTR constructs. […]
(§5) µM) for 24 h at 30 °C or 37 °C. […] The plate was then read in a fluorescence plate reader (SpectraMax i3, Molecular Devices) at 37 °C (excitation: 530 nm, emission: 560 nm). […] CFTR-mediated depolarization was detected as an increase in fluorescence. […] The peak changes in fluorescence were normalized to fluorescence immediately […]

[2] = target: T2, R170G-CFTR (Homo sapiens, UniProt P13569, R170G); experiment: as above; format: cell-based; conditions: HEK293, 24 h, 10 nM
T2 construct: CFTR identification in pull-down studies and analysis of full-length CFTR in protein maturation assays; expressed in transfected cells; host or cells: HEK293 (transient)
T2 sequence (P13569 whole entry R170G): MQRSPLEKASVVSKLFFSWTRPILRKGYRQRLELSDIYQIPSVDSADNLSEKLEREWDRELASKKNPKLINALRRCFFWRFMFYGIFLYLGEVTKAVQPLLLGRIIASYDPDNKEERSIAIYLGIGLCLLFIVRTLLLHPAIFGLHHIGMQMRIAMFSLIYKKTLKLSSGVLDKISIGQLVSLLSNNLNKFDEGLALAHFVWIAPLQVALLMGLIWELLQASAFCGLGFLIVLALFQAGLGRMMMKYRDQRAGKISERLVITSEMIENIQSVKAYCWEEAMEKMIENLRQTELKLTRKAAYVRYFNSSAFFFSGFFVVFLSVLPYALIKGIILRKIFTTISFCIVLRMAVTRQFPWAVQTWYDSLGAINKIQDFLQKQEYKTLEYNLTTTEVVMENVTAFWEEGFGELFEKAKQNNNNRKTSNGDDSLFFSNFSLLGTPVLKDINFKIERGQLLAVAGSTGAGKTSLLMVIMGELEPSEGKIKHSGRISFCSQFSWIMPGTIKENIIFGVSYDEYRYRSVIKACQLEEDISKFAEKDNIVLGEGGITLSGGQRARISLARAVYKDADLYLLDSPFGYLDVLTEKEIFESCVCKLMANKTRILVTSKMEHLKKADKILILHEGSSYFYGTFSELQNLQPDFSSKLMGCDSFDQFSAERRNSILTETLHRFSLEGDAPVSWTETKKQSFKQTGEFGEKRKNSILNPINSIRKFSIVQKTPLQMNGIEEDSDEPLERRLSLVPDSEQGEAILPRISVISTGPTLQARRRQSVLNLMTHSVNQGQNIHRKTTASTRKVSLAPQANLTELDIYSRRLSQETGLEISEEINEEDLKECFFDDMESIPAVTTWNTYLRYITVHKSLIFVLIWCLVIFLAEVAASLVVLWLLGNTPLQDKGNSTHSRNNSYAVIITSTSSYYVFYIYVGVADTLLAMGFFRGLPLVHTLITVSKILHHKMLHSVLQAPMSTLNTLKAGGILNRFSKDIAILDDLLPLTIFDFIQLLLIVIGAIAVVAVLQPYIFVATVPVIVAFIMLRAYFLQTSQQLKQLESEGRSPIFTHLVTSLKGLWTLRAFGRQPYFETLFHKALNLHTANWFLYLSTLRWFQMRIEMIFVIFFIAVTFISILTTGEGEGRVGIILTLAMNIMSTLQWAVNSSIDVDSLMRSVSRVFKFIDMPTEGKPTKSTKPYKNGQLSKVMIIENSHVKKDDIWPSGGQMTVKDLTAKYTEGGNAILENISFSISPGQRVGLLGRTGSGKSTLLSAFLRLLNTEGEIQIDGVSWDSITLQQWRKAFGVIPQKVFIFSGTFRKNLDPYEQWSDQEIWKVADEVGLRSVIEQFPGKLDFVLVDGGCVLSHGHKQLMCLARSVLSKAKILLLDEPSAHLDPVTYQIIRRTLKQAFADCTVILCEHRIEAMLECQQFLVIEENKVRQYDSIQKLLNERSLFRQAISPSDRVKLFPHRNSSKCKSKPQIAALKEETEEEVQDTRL
Protocol: as §1, §2, §3, §4, §5

Compound: CN(C(=O)c1cccc(-n2nc(C(F)(F)F)c3c2[C@@H](Oc2ccc(C(=O)O)cc2)CCC3)c1)c1ccc2c(c1)OC(F)(F)O2 [ARN23765]
- F508del/R1070W channel activity (FLIPR) [1]: further enhanced
- R170G-CFTR activity (FLIPR) [2]: improving
